{"source": "paper PMC7822816", "about": "“Halo-fluorescein for photodynamic bacteria inactivation in extremely acidic conditions” (Nature Communications, 2021)", "key": {"[1]": {"tested_on": "C. albicans", "assay": "IC50 of photodynamic inactivation, C. albicans", "conditions": "Candida albicans, 10 min, pH 3, read-out: IC50 (C. albicans)", "procedure": "(§1) For quantitative comparison, the half-maximal inhibitory concentrations (IC50) of TIF for these bacterial were measured (Supplementary Table 6, and Supplementary Figs. 51–58).\nBacterial strains are listed in Supplementary Table 6. S. aureus and MRSA, and C. albicans were provided by West China Hospital of Stomatology, Sichuan University. A. acidoterrestris, S. enterica, H. pylori, L. plantarum, and E. coli were provided by College of Life Science, Sichuan University. The bacteria were cultured overnight in a constant temperature oscillator (37 °C, 170 r/min, the specific culture conditions were listed in Supplementary Table 6). Suspensions of bacteria (100 μL, diluted 1000-folds, PBS) were added with different concentration PSs (final volume of 1 mL), and irradiated with LED (λ = 520 nm, 35 mW/cm^2) for 10 min. Then, the treated bacteria liquid (100 μL) were added into the culture medium and cultured in a 24-well plate. The OD600 of bacteria was measured to obtain the bacteria CFUs, and the survival rate were calculated as C/C0 × 100%, where C is the CFU of sample which treated with PSs and light, and C0 is the blank without any treatment. All photodynamic sterilizations were carried out in at least three replicates.\nIrradiation: 520 nm green LED (6 mW/cm2), 10 min. Error bars = Standard Deviation (n=3).\nIrradiation: 520 nm green LED (6 mW/cm2), 10 min."}, "[2]": {"tested_on": "S. aureus", "assay": "IC50 of photodynamic inactivation, S. aureus", "conditions": "Staphylococcus aureus, 10 min, pH 2.5, read-out: IC50 (S. aureus)", "procedure": "as §1\n(§2) S. aureus and MRSA, and C. albicans were provided by West China Hospital of Stomatology, Sichuan University. A. acidoterrestris, S. enterica, H. pylori, L. plantarum, and E. coli were provided by College of Life Science, Sichuan University. The bacteria were cultured overnight in a constant temperature oscillator (37 °C, 170 r/min, the specific culture conditions were listed in Supplementary Table 6). Suspensions of bacteria (100 μL, diluted 1000-folds, PBS) were added with different concentration PSs (final volume of 1 mL), and irradiated with LED (λ = 520 nm, 35 mW/cm^2) for 10 min. Then, the treated bacteria liquid (100 μL) were added into the culture medium and cultured in a 24-well plate. The OD600 of bacteria was measured to obtain the bacteria CFUs, and the survival rate were calculated as C/C0 × 100%, where C is the CFU of sample which treated with PSs and light, and C0 is the blank without any treatment. All photodynamic sterilizations were carried out in at least three replicates."}, "[3]": {"tested_on": "broad band of aciduric bacteria", "assay": "Photodynamic inactivation, summary over aciduric bacteria", "conditions": "read-out: IC50 (broad band of aciduric bacteria)", "procedure": "as §1\nThe bacteria were cultured overnight in a constant temperature oscillator (37 °C, 170 r/min, the specific culture conditions were listed in Supplementary Table 6). Suspensions of bacteria (100 μL, diluted 1000-folds, PBS) were added with different concentration PSs (final volume of 1 mL), and irradiated with LED (λ = 520 nm, 35 mW/cm^2) for 10 min. Then, the treated bacteria liquid (100 μL) were added into the culture medium and cultured in a 24-well plate. The OD600 of bacteria was measured to obtain the bacteria CFUs, and the survival rate were calculated as C/C0 × 100%, where C is the CFU of sample which treated with PSs and light, and C0 is the blank without any treatment. All photodynamic sterilizations were carried out in at least three replicates."}, "[4]": {"assay": "Photophysical characterization (absorption, fluorescence, phosphorescence, lifetime)", "format": "physicochemical", "experimental": "Section S6. Photophysical Characterizations\nS6.1 Absorption, fluorescence, and phosphorescence spectra\nFluorescein and its derivatives were dissolved in DMSO to obtain 1 mM stock solutions.\nThe stock solutions were diluted with deionized water to 10 μM.\nSupplementary Figure 20. The absorption (black), fluorescence (blue), and phosphorescence (red, slit 25 nm) spectra of FL.\nSupplementary Figure 21. The absorption (black), fluorescence (blue), and phosphorescence (red, slit 25 nm) spectra of DCF.\nS6.2 Fluorescence lifetime\nFluorescence decay samples was recorded with Fluorolog-3 (Horiba). The solution of samples were prepared to be 5 μM in 0.5% (v/v) DMSO, and diluted with 0.1M NaOH.\nS6.5 Photophysical properties of the halogenated-fluorescein derivatives\nSupplementary Table 4. Photophysical Properties of Halogenated-fluorescein derivatives. […]\na Measured in 2% DMSO; b Measured in 2% DMSO citric acid -disodium hydrogen phosphate buffer; c Measured in a mixed solvent of D 2O and CH3CN (VD2O:\nVCH3CN = 1: 15); d The solution of samples were prepared to be 5 μM in 0.5% (v/v) DMSO, and diluted with 0.1 M NaOH."}, "[5]": {"assay": "Relative singlet oxygen quantum yield (1O2 phosphorescence, Rose Bengal standard)", "format": "physicochemical", "parameters": "key: relative to Rose Bengal standard (ΦΔ = 0.75)", "conditions": "pH = 10 media; relative, RB as the standard", "experimental": "To permit the open-form structure of all fluorescein derivatives, all the measurements were carried out in pH = 10 media.\nThe singlet oxygen quantum yields (ΦΔ) of all fluorescein-based PSs were evaluated with Rose Bengal as the standard (ΦΔ = 0.75):1 ΦΔ=AsAbsorption/As(Emission)×ARB(Emission)/ARB(Absorption)×0.75 Here, the area of absorption (RB and PSs) was collected with an integrating sphere (λex = 510 nm), while the area of emission was obtained from the characterized 1270 nm ^1O2 phosphorescence emission. For collection of such emission, CH3CN and D2O mixed solvent (v (D2O): v (CH3CN) = 1:15, pH = 9.0, adjusted with 0.001 M NaOH) was used, since H2O can severely quench the singlet oxygen luminescence. For all the measurements, the concentrations of the PSs were set at 10 μM.\nS6.3 Relative singlet oxygen quantum yield\nThe singlet O2 quantum yield of photosensitizers were measured by Fluolog-3 spectrofluorometer with an integration sphere (IS80, Labsphere) and NIR detector (Hamamatsu H-10330) in this work.\nFor better collection of the characterized singlet oxygen phosphorescence emission (1275 nm), CH3CN and D2O mixed solvent was used (H2O can severely quench the singlet oxygen luminescence). The 10 mM stock solutions in CH3CN and D2O mixed solvent (VCH3CN:VD2O = 15:1) were first prepared. The stock solutions were diluted to 10 μM, and the final volume was 2 mL. In addition, the CH3CN and D2O mixed solvent as blank was also prepared.\n1. Turn on the instrument and the start software, the light source is xenon lamp.\n2. From the experiment menu, selected spectra, emission. The 1O2 emission phosphorescence spectra are first measured.\n3. The parameters setting are listed: a. Excitation wavelength: 510 nm"}, "[6]": {"assay": "1O2 phosphorescence emission under different pH and irradiance", "format": "physicochemical", "conditions": "pH 2.2 (the gastric acidity), 10 μM", "description": "To evaluate the pH-dependent ^1O2 generation, TIF, PB, and RB were chosen here because of their high ^1O2 generation efficiency and low pH0.5. […] Similar results from PB and RB were also observed (Supplementary Figs. 17 and 18). When pH was lowered down to 2.2 (the gastric acidity), appreciable ^1O2 phosphorescence emission was still collected from TIF, indicating the good performance of TIF in photosensitized generation of ^1O2 in extremely acidic condition. Besides, the pH-induced decrease of ^1O2 generation could be compensated through enlarging the light irradiance. […] Therefore, TIF featured good performance for potential photodynamic bacteria inactivation at extremely acidic conditions.\nA total of 10 μM TIF solutions were first prepared with citric acid–Na2HPO4 buffer (100 mM, diluted by D2O) to yield different pH (2.2–6.0). Then, a laser of 532 nm was selected as the lighting source, and the ^1O2 phosphorescence emission were collected.\nS5.3 1O2 phosphorescence emission of TIF under different pH and irradiance 10 μM TIF solutions were first prepared with citric acid-Na2HPO4 buffer (100 mM, diluted by D2O) to yield different pH (2.2-6.0). The pH value of solution were adjust by HCl (c, diluted by D2O). Then, laser of 532 nm was selected as the light source, and the 1O2 phosphorescence emission were collected by near infrared detector (H-10330)\nSupplementary Figure 19. […]"}, "[7]": {"tested_on": "L. plantarum", "assay": "Photodynamic inhibition of L. plantarum (coating plate method)", "format": "cell-based, Lactobacillus plantarum"}, "[8]": {"tested_on": "L. plantarum", "assay": "IC50 of photodynamic inactivation, L. plantarum", "conditions": "Lactiplantibacillus plantarum, 10 min, pH 2.5, read-out: IC50 (L. plantarum)", "procedure": "as §1, §2"}, "[9]": {"tested_on": "C. albicans infection of oral mucosa", "source_text": "The extremely acidic environment was constructed through changing the pH of the mucosa and diluting PSs in pH 3.0 PBS buffer. […] During the investigations, the infected ICR mice were divided into six groups (six mice per group): blank, light, TIF, TIF + light, Ce 6 + light, and Zn-tpp + light. For comparison and better visualization of the infection, a normal group (no infection) was also included.\nTo construct the oral mucosal infection model, cotton balls immersed in solutions containing 10^8 CFU/mL of C. albicans were placed in the mouth of mice for 75 min. At day 1 and day 3, 50 μL pH 3.0 PBS and PSs (20 μM, diluted by pH 3.0 PBS) were added to oral mucosa, and treated with different lasers (510 nm for TIF, 660 nm for Ce 6 and Zn-tpp, 50 mW/cm^2) for 10 min.\nTo investigate the therapy effect, photographs, colonies, weights, and pathology index of mice were taken every other day. After day 3, one mouse in each group was sacrificed, and the tissues of oral mucosa were harvested for hematoxylin and eosin (H&E) staining. The pathology index was evaluated based on the standard given in Supplementary Table 10."}}, "note": "pIC50: −log10 of the molar value.", "data": [{"smiles": "O=C(O)c1ccccc1-c1c2cc(I)c(=O)c(I)c-2oc2c(I)c(O)c(I)cc12", "note": "[TIF, 2′,4′,5′,7′-tetraiodofluorescein]", "values": [{"measurement": "pIC50", "setting": "[1]", "result": 5.98}, {"measurement": "pIC50", "setting": "[2]", "result": 6.43}, {"measurement": "pIC50", "setting": "[3]", "result": "> 5.96"}, {"measurement": "kdec", "setting": "[4]", "result": "1e+11", "unit": "s⁻¹"}, {"measurement": "knr", "setting": "[4]", "result": "9.97e+10", "unit": "s⁻¹"}, {"measurement": "krad", "setting": "[4]", "result": "3e+08", "unit": "s⁻¹"}, {"measurement": "maximum absorption", "setting": "[4]", "result": 526, "unit": "nm"}, {"measurement": "ΦFL", "setting": "[4]; 5 μM in 0.5% (v/v) DMSO, diluted with 0.1 M NaOH", "result": 0.003}, {"measurement": "λAbs", "setting": "[4]; 2% DMSO", "result": 527, "unit": "nm"}, {"measurement": "λPh", "setting": "[4]; 2% DMSO", "result": 701, "unit": "nm"}, {"measurement": "λem", "setting": "[4]; 2% DMSO", "result": 551, "unit": "nm"}, {"measurement": "τfl", "setting": "[4]; fluorescence lifetime, 5 μM in 0.5% DMSO, 0.1 M NaOH", "result": 0.01, "unit": "ns"}, {"measurement": "singlet oxygen quantum yield (ΦΔ)", "setting": "[5]", "result": 0.64}, {"measurement": "1O2 phosphorescence emission (1270 nm)", "setting": "[6]", "result": "appreciable"}, {"measurement": "antimicrobial activity at different pH", "setting": "[7]; 0.5 μM, light, pH range 2.5–7.0", "result": "considerable antimicrobial activity"}, {"measurement": "dark toxicity (bacteria growth)", "setting": "[7]; no light, concentration up to 50 μM", "result": "no significant inhibition of bacteria growth"}, {"measurement": "live/dead bacterial staining (SYTO 9/propidium iodide)", "setting": "[7]; pH 2.5, 10 μM, irradiation 1 h", "result": "bright red fluorescence"}, {"measurement": "membrane integrity (SEM, TEM)", "setting": "[7]; pH 2.5, 10 μM, irradiation 1 h", "result": "obvious deformation and distortion parts"}, {"measurement": "pIC50", "setting": "[8]", "result": 8.00}, {"measurement": "pseudo membrane on tongue", "setting": "[9]; TIF + light group", "result": "disappeared gradually"}, {"measurement": "body weight loss of infected mice", "setting": "[9]; TIF + light group, within 7 days", "result": "least loss"}, {"measurement": "pathology index", "setting": "[9]; TIF + light group, 20 μM in pH 3.0 PBS, 510 nm 50 mW/cm^2 10 min, day 1 and day 3", "result": "remained almost unchanged"}, {"measurement": "H&E staining of tongue sections, without light", "setting": "[9]; TIF group, no light", "result": "large amounts of inflammation infiltration"}, {"measurement": "H&E staining of tongue sections, with light", "setting": "[9]; photosensitizer + light (510 nm TIF, 660 nm Ce 6 and Zn-tpp)", "result": "generally similar to that of the normal group"}]}]}
